In patent US11465972B2, “Inhibitors of oxidized low-density lipoprotein receptor 1 and methods of use thereof” (United States Government as represented by the Department …, priority 2015, dated 2022):
Entries after “also recorded” stand apart in the source; their conditions may differ.

Columns and labels:
ERK1/2 = test: ox-LDL-induced activation (phosphorylation) of ERK1/2 in HUVECs (Western blotting); format: cell-based, human; settings: 200 nM
Procedure: (§1) FIG. 4A, FIG. 4B, FIG. 4C, FIG. 4D and FIG. 4E depict the effect of lead molecules on ox-LDL-induced the activation of MAPKs in HUVECs, VCAM-1 expression and monocyte adhesion onto HUVECs. […] (FIG. 4B) Western blot analyses showing phospho-p38MAPK expression in HUVECs following exposure to 200 nM of each compound for 30 min, and subsequently exposed to 5 μg/mL ox-LDL for 6 hours. […] (FIG. 4D) The variation of VCAM-1 mRNA expression levels with different concentrations of the led compounds. The concentrations are indicated on the X-axis and the VCAM-1 mRNA levels are shown on the Y-axis. The plots for all five molecules are shown in separate colors. […] Graphs show data as mean (±SD); n=3 (for Western blot and PCR assays) or n=20 (for monocyte adhesion assay). *P<0.01 vs. control; #P<0.01 or <0.05 vs. ox-LDL group.
To assess downstream effects of each candidate molecule, ox-LDL induced expression and activation of ERK1/2 and P38MAPK was measured in HUVECs in the absence or presence of each candidate molecule (200 nM). […] Importantly, unphosphorylated MAPKs were not affected by any of the candidate molecules.
HUVECs were plated into 6-well cell culture plates. When the cells were reached 70% confluence, they were treated with 200 nM of each of 5 molecules for 30 min, and subsequently exposed to […] ox-LDL for 6 h. After washing with PBS for 2 times, the cells were treated with Cell Lysis Buffer (Promega, Madison, Wis.) with protease Inhibitor and phosphatase Inhibitor (Sigma-Aldrich, St. Louis, Mo.). The protein concentrations were measured by Bradford protein assay. Proteins (20 tg) were separated by electrophoresis in 12% precast SDS-PAGE gels, and were transferred onto Nitrocellulose Blotting Membrane (GE Healthcare Life Science, Piscataway, N.J.). The membranes were then incubated with LOX-1, VCAM-1 (Abcam, Cambridge, Mass.), ERK1/2, phospho-ERK1/2, phospho-p38MAPK (Cell Signaling Technology, Inc., Danvers, Mass.), or […] (Santa Cruz Biotechnology, Inc., Dallas, Tex.) primary antibodies (1:1000˜1:2000) in blocking solution at 4° C. overnight. Following wash with TBS-1 for 3 times, the blots were incubated with HRP-conjugated secondary antibodies (1:10000) in blocking solution for 1 hour at room temperature. After 3 washes with PBS, the blots were treated with Western Blotting Luminol Reagents (Santa Cruz Biotechnology) for 3 min and then exposed to Blue Basic Autorad Film (GeneMate, Kaysville, Utah). The protein bands were scanned by a Gel Doc™ XR System (Bio-Rad, Hercules, Calif.), and the density of each band was quantified by Image J software. The relative expression of target proteins was calculated with comparison to […] bands.

[1] = system: adhesion of monocytes to HUVECs; test: Monocyte adhesion assay on HUVECs; format: cell-based, human; settings: 200 nM; for effect on monocyte adhesion to HUVECs (in words): ox-LDL treated
Procedure: as §1
The ox-LDL-induced expression of adhesion molecules, such as VCAM-1, facilitates the adhesion of inflammatory cells, such as monocytes.
Human monocytes were isolated from blood from the healthy donors and cultured in DMEM supplemented with 10% FBS. HUVECs were plated into 6-well plates. When the cells reached 70-80% confluence, they were treated with 200 nM of each of 5 molecules for 30 min, and subsequently exposed to […] ox-LDL for 6 h. After washing with PBS, the medium was replaced, and then monocytes ([…]) were added to each well (4 wells/group) onto HUVECs. Thirty minutes later, the medium containing monocytes were aspired and the unattached monocytes were carefully washed out with PBS. Five fields of each well were randomly captured under a microscope. The number of adherent monocyte was counted and averaged.

In the case of `CC(C)(C)C(=O)NCCc1nc2ccccc2n1Cc1ccccc1F` [Mol-2], the “effect on ox-LDL-induced activation/phosphorylation of ERK1/2 (in words)” value (ERK1/2) is reported as “no significant effect”.
For `CCCn1c(CCNC(=O)CCCO)nc2ccccc21` [Mol-4], the “effect on ox-LDL-induced activation/phosphorylation of ERK1/2 (in words)” value (ERK1/2) was “potently reduced”, the “effect on ox-LDL-induced activation/phosphorylation of ERK1/2 (in words)” value (ERK1/2; listed as MoL-4) was “significantly inhibited” and the “reduction of monocyte adhesion” value [1] was 30%. For the same compound, the “effect on monocyte adhesion to HUVECs (in words)” value (“effect on monocyte adhesion” for short) [1] was “decreased the number of monocytes adherent to HUVECs; also recorded: markedly inhibited”.
With `CCOCCCNC(=O)CCN1C(=O)COc2ccccc21` [Mol-1] the “effect on ox-LDL-induced activation/phosphorylation of ERK1/2 (in words)” value (ERK1/2) was “significantly inhibited; also recorded: moderately”, the “reduction of monocyte adhesion” value [1] was 25% and the “effect on monocyte adhesion” value [1] was “decreased the number of monocytes adherent to HUVECs; also recorded: markedly inhibited”.
`Cc1cc(C)n(CC(O)COc2ccccc2)n1` (centres unmarked) [Mol-5, 1-(3,5-dimethyl-1H-pyrazol-1-yl)-3-phenoxypropan-2-ol] was tested, and the “effect on ox-LDL-induced activation/phosphorylation of ERK1/2 (in words)” value (ERK1/2) was “significantly inhibited; also recorded: maximum inhibition; also recorded: potently reduced”, the “reduction of monocyte adhesion” value [1] was 35% and the “effect on monocyte adhesion” value [1] was “decreased the number of monocytes adherent to HUVECs; also recorded: markedly inhibited”.
